Experimental data from PubChem BioAssay AID256 (DTP/NCI, 2004).
Toxic doses and inconclusive results are not listed. Rule for the calls: active = survival T/C of 150% or more; inactive = T/C below 125% in these data.

System: CD2F1 mice, L1210 leukemia ip, survival T/C
Assay: NCI In Vivo Anticancer Drug Screen. Data for tumor model L1210 Leukemia (intraperitoneal) in CD2F1 (CDF1) mice
Conditions: endpoint: mean survival time, higher = longer survival
How it was run: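 In this screen, transplantable tumors were grown in mice given either the compound or its vehicle. Results were expressed as the treated measurement relative to the control measurement.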

Measured: T/C

C=C1C(C)C2C(Cc3ccccc3)NC(=O)C23C(OC(C)=O)/C=C/C(C)(O)CC(C)C/C=C/C3C1O (stereo unspecified)
inactive: dose: 0.37 mg/kg/injection, schedule: Q01DX009 (ip), vehicle: Klucel (hydroxypropylcellulose) (HPC) 95 % of control | dose: 0.75 mg/kg/injection, schedule: Q01DX009 (ip), vehicle: Klucel (hydroxypropylcellulose) (HPC) 100 % of control | dose: 1.5 mg/kg/injection, schedule: Q01DX009 (ip), vehicle: Klucel (hydroxypropylcellulose) (HPC) 96 % of control | dose: 3.0 mg/kg/injection, schedule: Q01DX009 (ip), vehicle: Klucel (hydroxypropylcellulose) (HPC) 96 % of control | dose: 6.0 mg/kg/injection, schedule: Q01DX009 (ip), vehicle: Klucel (hydroxypropylcellulose) (HPC) 105 % of control | dose: 12.0 mg/kg/injection, schedule: Q01DX009 (ip), vehicle: Klucel (hydroxypropylcellulose) (HPC) 105 % of control | dose: 375.0 micrograms/kg/injection, schedule: Q01DX009 (ip), vehicle: Klucel (hydroxypropylcellulose) (HPC) 106 % of control | dose: 750.0 micrograms/kg/injection, schedule: Q01DX009 (ip), vehicle: Klucel (hydroxypropylcellulose) (HPC) 96 % of control | dose: 1500.0 micrograms/kg/injection, schedule: Q01DX009 (ip), vehicle: Klucel (hydroxypropylcellulose) (HPC) 104 % of control | dose: 3000.0 micrograms/kg/injection, schedule: Q01DX009 (ip), vehicle: Klucel (hydroxypropylcellulose) (HPC) 101 % of control | dose: 6000.0 micrograms/kg/injection, schedule: Q01DX009 (ip), vehicle: Klucel (hydroxypropylcellulose) (HPC) 96 % of control

COC1OC2COc3ccccc3OC2C(N)C1Nc1ccccc1 (stereo unspecified)
inactive: dose: 75.0 mg/kg/injection, schedule: Q01DX001 (ip), vehicle: saline with Tween-80 101 % of control | dose: 150.0 mg/kg/injection, schedule: Q01DX001 (ip), vehicle: saline with Tween-80 101 % of control | dose: 300.0 mg/kg/injection, schedule: Q01DX001 (ip), vehicle: saline with Tween-80 100 % of control

O=C(C=P(CC[PH+](Cc1ccccc1)Cc1ccccc1)(Cc1ccccc1)Cc1ccccc1)c1ccccc1.[Cl][Pd][Cl]
inactive: dose: 3.13 mg/kg/injection, schedule: Q04DX003 (ip), vehicle: distilled water + Tween-80 98 % of control | dose: 6.25 mg/kg/injection, schedule: Q04DX003 (ip), vehicle: distilled water + Tween-80 100 % of control | dose: 12.5 mg/kg/injection, schedule: Q04DX003 (ip), vehicle: distilled water + Tween-80 104 % of control | dose: 25.0 mg/kg/injection, schedule: Q04DX003 (ip), vehicle: distilled water + Tween-80 102 % of control | dose: 50.0 mg/kg/injection, schedule: Q04DX003 (ip), vehicle: distilled water + Tween-80 96 % of control | dose: 100.0 mg/kg/injection, schedule: Q04DX003 (ip), vehicle: distilled water + Tween-80 96 % of control | dose: 200.0 mg/kg/injection, schedule: Q04DX003 (ip), vehicle: distilled water + Tween-80 96 % of control
